Laboratory results published in patent US20110020312A1, “METHODS FOR TREATMENT OF METABOLIC DISORDERS USING EPIMETABOLIC SHIFTERS, MULTIDIMENSIONAL INTRACELLULAR MOLECULES, OR ENVIRONMENTAL INFLUENCERS” (priority 2009, published 2011).

Assays:
[1] = system: Pancreatic Cancer Cells (PaCa2); test: Real-time PCR Diabetes Array; type: cell-based; details: 100 uM Q10, various times
Protocol: Experiments were carried out essentially as described above.

Caspase 3 = test: Western blot, Caspase 3 levels; type: cell-based, human
Protocol: The blots were stripped by incubating for 30 minutes with methanol, followed by two 10 minute washes with TBS-T, then 30 minutes of incubation with Stripping buffer at 50 deg C., and followed by two washes with 100 ml or more of TBS-T for 30′ each. The 2 blots were scanned in laser scanner to check for complete stripping. The blots were activated with methanol for 5 seconds, washed with water for 5 minutes, and TBST for 15 minutes. The blots were blocked for 1 hour with 5% blocking reagent in TBS-T at room temperature and then washed 3 times with TBS-T (1×-15′; 2×5′ each) and probed with the antibody for Caspase 3 in 5% BSA (Santacruz Biotechnology # sc7272) at 1:200 dilutions) overnight at 4 deg C. with shaking. After the overnight incubation with primary antibody for Caspase 3, the membranes were washed 3 times with TBS-T (1×-15′; 2×5′ each) and probed with the secondary antibody (antimouse; 1:10,000 dilution) for 1 h on the orbital tilting shaker at room temperature. After 1 h of incubation with secondary antibodies, the blots were washed 3 times with TBS-T (1×-15′; 2×5′ each) and then incubated with ECF reagent for 5 minutes and then each blot scanned with 5100 Fuji Laser scanner at 25 uM resolution, 16 bit, green laser, at 400V and at 500 V.
The samples were processed and the gels were run, transferred, stained and scanned essentially as described above.
The levels of Caspase 3 and actin were determined by probing the blots successively with primary antibodies for Caspase 3 and actin, essentially as described above.
The Actin blots were stripped by incubating for 30 minutes with methanol, followed by two 10 minute washes with TBS-T, then 30 minutes of incubation with Stripping buffer at 50 deg C., and followed by two washes with 100 ml or more of TBS-T for 30′ each. The blots were scanned in laser scanner to check for complete stripping. The blots were activated with methanol for 5 seconds, washed with water for 5 minutes, and TBST for 15 minutes. The blots were blocked for 1 hour with 5% blocking reagent in TBS-T at room temperature and then washed 3 times with TBS-T (1×-15′; 2×5′ each) and probed with the primary antibody for Hif 1 alpha, Caspase 3 or PDHB in 5% BSA (at 1:200 by incubation overnight at 4 deg C. with gentle shaking. The primary antibody for Hif 1 alpha (Abcam ab2185; antirabbit) was at 1:500 dilution in 5% BSA. The primary antibody for Caspase 3 (Santacruz sc7272; antirabbit) was at 1:200 dilution in 5% BSA. The primary antibody for Pyruvate Dehydrogenase beta (PDHB) (Novus Biologicals H00005162-M03; antimouse) was at 1:500 dilution in 5% BSA. After incubation with primary antibodies, the membranes were washed 3 times with TBS-T (1×-15′; 2×5′ each) and probed with the secondary antibody (PDHB antimouse; Hif 1a and Caspase 3 antirabbit; 1:10,000 dilution) for 1 h at room temperature. After 1 h of incubation with secondary antibodies, the blots were washed 3 times with TBS-T (1×-15′; 2×5′ each) and then incubated with ECF reagent for 5 minutes and then each blot scanned with 5100 Fuji Laser scanner at 25 uM resolution, 16 bit, green laser, at 400V and at 500 V.
The Actin blots were stripped by incubating for 30 minutes with methanol, followed by two 10 minute washes with TBS-T, then 30 minutes of incubation with Stripping buffer at 50 deg C., and followed by two washes with 100 ml or more of TBS-T for 30′ each. The blots were activated with methanol for 5 seconds, washed with water for 5 minutes, and TBST for 15 minutes. The blots were blocked for 1 hour with 5% blocking reagent in TBS-T at room temperature and then washed 3 times with TBS-T (1×-15′; 2×5′ each) and probed with the primary antibody for Caspase 3 or MMP-6 in 5% BSA by incubation overnight at 4 deg C. with gentle shaking. The primary antibody for Caspase 3 (Abcam ab44976-100; antirabbit) was at 1:500 dilution in 5% BSA. The primary antibody for MMP-6 (Santacruz scMM0029-ZB5; antimouse) was at 1:100 dilution in 5% BSA. […]

[2] = system: MCF-7 breast cancer cells; test: Oxygen consumption rate (OCR), SeaHorse XF analyzer; type: cell-based; details: absence and presence of stressors (FIG. 31)
Excerpt: (§1) Environmental influencers (e.g., MIMs or Epi-shifters) may also be identified by changes in cellular energetics. One example of the measurement of cellular energetics are the real-time measures of the consumption of molecular oxygen and/or the change in pH of the media of a cell culture. For example, the ability of a potential epi-shifter to modulate the metabolic state of a cell may be analyzed using, for example, the XF24 Analyzer (Seahorse, Inc.). This technology allows for real time detection of oxygen and pH changes in a monolayer of cells in order to evaluate the bioenergetics of a cell microenvironment. The XF24 Analyzer measures and compares the rates of oxygen consumption (OCR), which is a measure of aerobic metabolism, and extracellular acidification (ECAR), which is a measure of glycolysis, both key indicators of cellular energetics.
(§2) (SeaHorse Biosciences Inc, North Billerica, Mass.).
(§3) In contrast, cancer cells (e.g., MCF-7, PaCa-2) are inherently primed to culture at higher levels of glucose compared to normal cells due to their glycolytic phenotype for maintenance in culture.

[3] = system: PaCa-2 pancreatic cancer cells; test: as above; type: cell-based; details: absence and presence of stressors (FIG. 32)
Excerpt: as §1, §2, §3

normal fibroblast = test: Bcl2 level after co-administration of CoQ-10 and VEGF; type: cell-based; details: co-administration with VEGF
[4] = rats, oral; cited from earlier work

Compound: COC1=C(OC)C(=O)C(C/C=C(\C)CC/C=C(\C)CC/C=C(\C)CC/C=C(\C)CC/C=C(\C)CC/C=C(\C)CC/C=C(\C)CC/C=C(\C)CC/C=C(\C)CCC=C(C)C)=C(C)C1=O [Q10, Coenzyme Q10]
- genes modulated by Q10 treatment (Diabetes arrays) [1]: ABCC8, ACLY, ADRB3, CCL5, CEACAM1, CEBRA, FOXG1, FOXP3, G6PD, GLP1R, GPD1, HNF4A, ICAM1, IGFBP5, INPPL1, IRS2, MAPK14, ME1, NFKB1, PARP1, PIK3C2B, PIK3CD, PPARGC1B, PRKAG2, PTPN1, PYGL, SLC2A4, SNAP25, HNF1B, TNRFSF1A, TRIB3, VAPA, VEGFA, IL4R and IL6
- Caspase 3 Normalized Volume (Caspase 3; HASMC, 5g48-50): 766
- Caspase 3 Normalized Volume (Caspase 3; HASMC, 5g48-100): 669
- Caspase 3 Normalized Volume (Caspase 3; HASMC, 22G24-50): 835
- Caspase 3 Normalized Volume (Caspase 3; HASMC, 22G24-100): 865
- Caspase 3 Normalized Volume (Caspase 3; HASMC, 22G48-50): 639
- Caspase 3 Normalized Volume (Caspase 3; HASMC, 22G48-100): 624
- Caspase 3 Normalized Volume as a % (Caspase 3; HepG2, 5g24-50, 2 Experiments): 108%
- Caspase 3 Normalized Volume as a % (Caspase 3; HepG2, 5g24-100, 2 Experiments): 176%
- Caspase 3 Normalized Volume as a % (Caspase 3; HepG2, 5g48-50, 2 Experiments): 144%
- Caspase 3 Normalized Volume as a % (Caspase 3; HepG2, 5g48-100, 2 Experiments): 95%
- Caspase 3 Normalized Volume as a % (Caspase 3; HepG2, 22G24-50, 2 Experiments): 139%
- Caspase 3 Normalized Volume as a % (Caspase 3; HepG2, 22G24-100, 2 Experiments): 178%
- Caspase 3 Normalized Volume as a % (Caspase 3; HepG2, 22G48-50, 2 Experiments): 150%
- Caspase 3 Normalized Volume as a % (Caspase 3; HepG2, 22G48-100, 2 Experiments): 145%
- Caspase 3 Normalized Volume (Caspase 3; PACA2, 5g-50, 24 h): 325
- Caspase 3 Normalized Volume (Caspase 3; PACA2, 5g-50, 48 h): 701
- Caspase 3 Normalized Volume (Caspase 3; PACA2, 5g-100, 24 h): 374
- Caspase 3 Normalized Volume (Caspase 3; PACA2, 5g-100, 48 h): 291
- Caspase 3 Normalized Volume (Caspase 3; PACA2, 22G-50, 24 h): 675
- Caspase 3 Normalized Volume (Caspase 3; PACA2, 22G-50, 48 h): 497
- Caspase 3 Normalized Volume (Caspase 3; PACA2, 22G-100, 24 h): 842
- Caspase 3 Normalized Volume (Caspase 3; PACA2, 22G-100, 48 h): 559
- levels of caspase 3 (Caspase 3; cancer cells): increased
- expression of Caspase-3 (Caspase 3; normal cells): moderately decreased
- OCR values [2]: consistent reduction
- OCR values [3]: consistent reduction
- levels of Bcl2 (normal fibroblast): no effect
- orally-administered CoQ10 absorbed [4]: 2-3%
